We go through 4 molecules from ChEMBL document CHEMBL5608182, “Synthesis and evaluation of neuroactive steroids with novel pharmacophore at C-21 let identify a compound with advantageous PK profile and higher EC50 and Emax as PAM on GABAA receptor” (Eur J Med Chem, 2024).

The structures appear in SMILES notation.

In general, EC50 refers to the midpoint of the concentration-response curve. A word on the IC50: it is the midpoint of a concentration-inhibition curve. Lower therefore signals higher potency. Broadly, the Emax is the maximal effect, on the per cent scale that the assay sets.

Gamma-aminobutyric acid receptor subunit alpha-4/beta3/delta, sequence (P28472 whole entry): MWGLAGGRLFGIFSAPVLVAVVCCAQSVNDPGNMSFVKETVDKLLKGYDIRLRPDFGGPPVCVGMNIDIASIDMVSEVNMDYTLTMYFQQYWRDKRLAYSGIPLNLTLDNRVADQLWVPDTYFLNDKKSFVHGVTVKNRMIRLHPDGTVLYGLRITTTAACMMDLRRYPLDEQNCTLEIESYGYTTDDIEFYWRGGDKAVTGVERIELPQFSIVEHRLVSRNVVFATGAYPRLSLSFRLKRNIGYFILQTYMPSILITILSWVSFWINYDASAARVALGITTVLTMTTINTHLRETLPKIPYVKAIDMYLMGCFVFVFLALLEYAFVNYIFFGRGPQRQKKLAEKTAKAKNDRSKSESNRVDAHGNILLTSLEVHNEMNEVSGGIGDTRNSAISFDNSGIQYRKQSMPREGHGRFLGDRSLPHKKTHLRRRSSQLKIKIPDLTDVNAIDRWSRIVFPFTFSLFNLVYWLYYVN
Gamma-aminobutyric acid receptor subunit alpha-4/beta3/delta, sequence (P48169 whole entry): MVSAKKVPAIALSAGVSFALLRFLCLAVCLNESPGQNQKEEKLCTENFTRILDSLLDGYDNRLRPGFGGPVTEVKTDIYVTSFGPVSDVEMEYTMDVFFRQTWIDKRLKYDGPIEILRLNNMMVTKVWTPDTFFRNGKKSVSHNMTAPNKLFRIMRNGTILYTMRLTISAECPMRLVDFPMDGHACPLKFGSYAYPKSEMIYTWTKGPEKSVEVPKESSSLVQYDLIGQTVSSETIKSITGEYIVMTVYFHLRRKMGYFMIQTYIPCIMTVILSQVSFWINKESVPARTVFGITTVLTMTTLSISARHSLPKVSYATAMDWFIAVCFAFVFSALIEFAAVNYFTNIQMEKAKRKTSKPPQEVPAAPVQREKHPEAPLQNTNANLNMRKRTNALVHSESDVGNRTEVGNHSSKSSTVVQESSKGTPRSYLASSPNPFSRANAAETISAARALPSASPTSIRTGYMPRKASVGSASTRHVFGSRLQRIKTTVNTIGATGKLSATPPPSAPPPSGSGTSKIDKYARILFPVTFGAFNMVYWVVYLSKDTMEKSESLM
Gamma-aminobutyric acid receptor subunit alpha-4/beta3/delta, sequence (O14764 whole entry): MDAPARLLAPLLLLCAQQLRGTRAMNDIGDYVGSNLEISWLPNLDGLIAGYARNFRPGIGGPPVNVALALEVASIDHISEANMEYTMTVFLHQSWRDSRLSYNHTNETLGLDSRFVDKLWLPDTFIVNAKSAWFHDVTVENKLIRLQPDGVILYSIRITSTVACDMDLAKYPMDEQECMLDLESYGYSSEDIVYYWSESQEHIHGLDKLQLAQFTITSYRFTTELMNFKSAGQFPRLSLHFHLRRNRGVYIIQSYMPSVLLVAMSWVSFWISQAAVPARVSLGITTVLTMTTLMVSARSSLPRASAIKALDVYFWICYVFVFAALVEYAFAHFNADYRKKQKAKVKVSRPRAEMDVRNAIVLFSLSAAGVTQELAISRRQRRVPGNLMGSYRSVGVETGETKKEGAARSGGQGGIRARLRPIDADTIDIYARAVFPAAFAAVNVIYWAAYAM

For the first data set, the target named is T1, GABA-A receptor; alpha-1/beta-2/gamma-2 (Homo sapiens, UniProt P14867+P18507+P47870).
T1 sequence (P14867 whole entry): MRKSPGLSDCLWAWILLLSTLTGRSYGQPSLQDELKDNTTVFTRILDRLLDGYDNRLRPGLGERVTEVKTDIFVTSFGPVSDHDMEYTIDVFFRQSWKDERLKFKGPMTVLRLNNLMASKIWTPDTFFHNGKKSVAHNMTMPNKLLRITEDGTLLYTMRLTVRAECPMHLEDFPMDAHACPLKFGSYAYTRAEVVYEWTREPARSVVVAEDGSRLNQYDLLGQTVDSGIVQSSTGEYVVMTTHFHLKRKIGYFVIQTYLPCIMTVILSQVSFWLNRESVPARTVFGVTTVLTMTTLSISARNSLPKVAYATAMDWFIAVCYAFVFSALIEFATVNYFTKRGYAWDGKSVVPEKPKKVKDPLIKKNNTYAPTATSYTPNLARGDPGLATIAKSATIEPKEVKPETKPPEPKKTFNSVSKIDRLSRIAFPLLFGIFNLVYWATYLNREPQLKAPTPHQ
T1 sequence (P47870 whole entry): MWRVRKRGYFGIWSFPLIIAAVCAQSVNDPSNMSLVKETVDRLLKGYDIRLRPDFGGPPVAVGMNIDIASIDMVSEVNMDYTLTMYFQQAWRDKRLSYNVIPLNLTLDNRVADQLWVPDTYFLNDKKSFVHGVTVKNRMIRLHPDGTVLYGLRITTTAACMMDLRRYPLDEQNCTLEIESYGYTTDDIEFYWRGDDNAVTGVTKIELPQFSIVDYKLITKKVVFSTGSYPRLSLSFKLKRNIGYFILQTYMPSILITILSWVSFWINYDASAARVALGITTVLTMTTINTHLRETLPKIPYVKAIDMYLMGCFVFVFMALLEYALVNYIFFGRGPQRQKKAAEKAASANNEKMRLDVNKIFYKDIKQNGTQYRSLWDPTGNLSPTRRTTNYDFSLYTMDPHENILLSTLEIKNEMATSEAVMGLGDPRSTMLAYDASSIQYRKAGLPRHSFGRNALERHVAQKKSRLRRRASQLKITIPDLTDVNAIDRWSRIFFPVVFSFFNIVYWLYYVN
T1 sequence (P18507 whole entry): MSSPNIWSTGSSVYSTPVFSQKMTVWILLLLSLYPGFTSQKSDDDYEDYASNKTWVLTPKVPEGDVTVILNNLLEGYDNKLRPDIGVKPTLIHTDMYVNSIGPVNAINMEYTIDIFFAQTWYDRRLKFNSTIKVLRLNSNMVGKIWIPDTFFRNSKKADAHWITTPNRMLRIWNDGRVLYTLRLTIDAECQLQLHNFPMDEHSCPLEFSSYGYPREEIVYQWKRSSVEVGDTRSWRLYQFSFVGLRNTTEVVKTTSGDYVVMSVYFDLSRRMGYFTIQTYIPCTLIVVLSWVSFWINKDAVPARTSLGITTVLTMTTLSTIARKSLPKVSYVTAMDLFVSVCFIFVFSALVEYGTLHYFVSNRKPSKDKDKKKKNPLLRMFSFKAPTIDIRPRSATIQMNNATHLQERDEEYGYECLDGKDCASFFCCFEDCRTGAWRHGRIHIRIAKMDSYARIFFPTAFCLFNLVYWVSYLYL
Kind of data set: Positive allosteric modulation of synaptic alpha1beta2gamma2 GABA-A receptor (unknown origin) transfected in LTK cells assessed as potentiation of GABA-induced peak current amplitude at -80 mV holding potential preincubated for 30 secs followed by GABA stimulation for 2 secs by Q-patch assay.
Settings: not given
The format is cell-based.
In the case of `C[C@@]1(O)CC[C@H]2[C@H](CC[C@@H]3[C@@H]2CC[C@]2(C)[C@@H](C(=O)Cn4cnn(CC5CC5)c4=O)CC[C@@H]32)C1`, the EC50 was 163 nM.

On to `C[C@@]1(O)CC[C@H]2[C@H](CC[C@@H]3[C@@H]2CC[C@]2(C)[C@@H](C(=O)Cn4ccn(-c5cccc(F)c5)c4=O)CC[C@@H]32)C1`, for which the EC50 worked out at 241 nM.

Consider `C[C@@]1(O)CC[C@H]2[C@H](CC[C@@H]3[C@@H]2CC[C@]2(C)[C@@H](C(=O)Cn4cnn(-c5ccnc(F)c5)c4=O)CC[C@@H]32)C1`, for which the EC50 came to 109 nM.

`C[C@@]1(O)CC[C@H]2[C@H](CC[C@@H]3[C@@H]2CC[C@]2(C)[C@@H](C(=O)Cn4ncn(-c5cccc(F)c5)c4=O)CC[C@@H]32)C1`: the EC50 turned out to be 371 nM.

Tested on in another data set: not listed separately
Kind of data set: Metabolic stability in Sprague-Dawley rat liver microsomes assessed as intrinsic clearance at 1 uM preincubated for 10 mins followed by NADPH addition by LC-MS analysis. As to conditions: read-out: CLH. In kind it is ADME, Microsome. A general note: Liver microsomes are vesicles of endoplasmic reticulum, rich in cytochrome P450 enzymes.
For the molecule `C[C@@]1(O)CC[C@H]2[C@H](CC[C@@H]3[C@@H]2CC[C@]2(C)[C@@H](C(=O)Cn4cnn(CC5CC5)c4=O)CC[C@@H]32)C1`, the CLint scaled at 1 µM was 280 mL/min/kg.

Take `C[C@@]1(O)CC[C@H]2[C@H](CC[C@@H]3[C@@H]2CC[C@]2(C)[C@@H](C(=O)Cn4cnn(-c5ccnc(F)c5)c4=O)CC[C@@H]32)C1`: the CLint scaled at 1 µM was determined as 69 mL/min/kg.

Tested on in a further data set: not listed separately
Kind of data set: Metabolic stability in human liver microsomes assessed as intrinsic clearance at 1 uM preincubated for 10 mins followed by NADPH addition by LC-MS analysis. In kind it is ADME, Microsome. To be noted: read-out: CLH.
As to `C[C@@]1(O)CC[C@H]2[C@H](CC[C@@H]3[C@@H]2CC[C@]2(C)[C@@H](C(=O)Cn4cnn(CC5CC5)c4=O)CC[C@@H]32)C1`, the CLint scaled at 1 µM is 38 mL/min/kg.

For `C[C@@]1(O)CC[C@H]2[C@H](CC[C@@H]3[C@@H]2CC[C@]2(C)[C@@H](C(=O)Cn4cnn(-c5ccnc(F)c5)c4=O)CC[C@@H]32)C1`, the CLint scaled at 1 µM was found to be 23 mL/min/kg.

Tested on in a further data set: not listed separately
Kind of data set: Metabolic stability in Sprague-Dawley rat liver microsomes assessed as compound remaining at 1 uM preincubated for 10 mins followed by NADPH addition by LC-MS analysis. The format is ADME, Microsome. To be noted: read-out: Stability.
Take `C[C@@]1(O)CC[C@H]2[C@H](CC[C@@H]3[C@@H]2CC[C@]2(C)[C@@H](C(=O)Cn4cnn(CC5CC5)c4=O)CC[C@@H]32)C1`: the remaining at 1 µM was 5.9%.

As for `C[C@@]1(O)CC[C@H]2[C@H](CC[C@@H]3[C@@H]2CC[C@]2(C)[C@@H](C(=O)Cn4cnn(-c5ccnc(F)c5)c4=O)CC[C@@H]32)C1`, the remaining at 1 µM is 32.2%.

Tested on in another data set: not listed separately
Kind of data set: Metabolic stability in human liver microsomes assessed as compound remaining at 1 uM preincubated for 10 mins followed by NADPH addition by LC-MS analysis. As to conditions: read-out: Stability. The format is ADME, Microsome.
For the molecule `C[C@@]1(O)CC[C@H]2[C@H](CC[C@@H]3[C@@H]2CC[C@]2(C)[C@@H](C(=O)Cn4cnn(CC5CC5)c4=O)CC[C@@H]32)C1`, the remaining at 1 µM came to 26.4%.

Turning to `C[C@@]1(O)CC[C@H]2[C@H](CC[C@@H]3[C@@H]2CC[C@]2(C)[C@@H](C(=O)Cn4cnn(-c5ccnc(F)c5)c4=O)CC[C@@H]32)C1`, the remaining at 1 µM worked out at 48.1%.

The target of another data set is GABA-A receptor; anion channel. Kind of data set: Inhibition of [35S]TBPS binding to GABA-A receptor in Sprague-Dawley rat brain cortical membrane incubated for 90 mins by liquid scintillation spectrometry. In kind it is cell membranes, Cortex.
Settings: not given
For the molecule `C[C@@]1(O)CC[C@H]2[C@H](CC[C@@H]3[C@@H]2CC[C@]2(C)[C@@H](C(=O)Cn4ccn(-c5cccc(F)c5)c4=O)CC[C@@H]32)C1`, the IC50 was determined as 1 nM.

Take `C[C@@]1(O)CC[C@H]2[C@H](CC[C@@H]3[C@@H]2CC[C@]2(C)[C@@H](C(=O)Cn4ncn(-c5cccc(F)c5)c4=O)CC[C@@H]32)C1`: the IC50 came out at 1 nM. In other words, the single-digit nanomolar range.

A further data set deals with GABA-A receptor; alpha-1/beta-2/gamma-2 (Homo sapiens) (UniProt P14867+P47870+P18507). Kind of data set: Positive allosteric modulation of synaptic alpha1beta2gamma2 GABA-A receptor (unknown origin) transfected in LTK cells assessed as potentiation of GABA-induced peak current amplitude by measuring maximal efficacy at 0.01 to 10 uM at -80 mV holding potential preincubated for 30 secs followed by GABA stimulation for 2 secs by Q-patch assay relative to control. The format is cell-based. As to conditions: filed as positive allosteric modulator, dose 0.01-10 µM, time 32.0 sec.
`C[C@@]1(O)CC[C@H]2[C@H](CC[C@@H]3[C@@H]2CC[C@]2(C)[C@@H](C(=O)Cn4cnn(CC5CC5)c4=O)CC[C@@H]32)C1`: the Emax was 727%.

For `C[C@@]1(O)CC[C@H]2[C@H](CC[C@@H]3[C@@H]2CC[C@]2(C)[C@@H](C(=O)Cn4ccn(-c5cccc(F)c5)c4=O)CC[C@@H]32)C1`, the Emax turned out to be 594%.

Take `C[C@@]1(O)CC[C@H]2[C@H](CC[C@@H]3[C@@H]2CC[C@]2(C)[C@@H](C(=O)Cn4cnn(-c5ccnc(F)c5)c4=O)CC[C@@H]32)C1`: the Emax was 775%.

For the molecule `C[C@@]1(O)CC[C@H]2[C@H](CC[C@@H]3[C@@H]2CC[C@]2(C)[C@@H](C(=O)Cn4ncn(-c5cccc(F)c5)c4=O)CC[C@@H]32)C1`, the Emax was 1260%.

Another data set has as its target Gamma-aminobutyric acid receptor subunit alpha-4/beta3/delta (Homo sapiens, UniProt O14764+P28472+P48169). Kind of data set: Positive allosteric modulation of extrasynaptic alpha4beta3delta GABA-A receptor (unknown origin) transfected in CHO cells assessed as potentiation of GABA-induced peak current amplitude at -80 mV holding potential preincubated for 30 secs followed by GABA stimulation for 2 secs by manual patch assay. In kind it is cell-based.
Settings: not given
Take `C[C@@]1(O)CC[C@H]2[C@H](CC[C@@H]3[C@@H]2CC[C@]2(C)[C@@H](C(=O)Cn4cnn(CC5CC5)c4=O)CC[C@@H]32)C1`: the EC50 was 122 nM.

For the molecule `C[C@@]1(O)CC[C@H]2[C@H](CC[C@@H]3[C@@H]2CC[C@]2(C)[C@@H](C(=O)Cn4ccn(-c5cccc(F)c5)c4=O)CC[C@@H]32)C1`, the EC50 turned out to be 139 nM.

As for `C[C@@]1(O)CC[C@H]2[C@H](CC[C@@H]3[C@@H]2CC[C@]2(C)[C@@H](C(=O)Cn4cnn(-c5ccnc(F)c5)c4=O)CC[C@@H]32)C1`, the EC50 came to 56 nM.

Turning to `C[C@@]1(O)CC[C@H]2[C@H](CC[C@@H]3[C@@H]2CC[C@]2(C)[C@@H](C(=O)Cn4ncn(-c5cccc(F)c5)c4=O)CC[C@@H]32)C1`, the EC50 stood at 112 nM.

Another data set has as its target Gamma-aminobutyric acid receptor subunit alpha-4/beta3/delta (Homo sapiens) (UniProt P28472+P48169+O14764). Kind of data set: Positive allosteric modulation of extrasynaptic alpha4beta3delta GABA-A receptor (unknown origin) transfected in CHO cells assessed as potentiation of GABA-induced peak current amplitude by measuring maximal efficacy at 0.01 to 10 uM at -80 mV holding potential preincubated for 30 secs followed by GABA stimulation for 2 secs by manual patch assay relative to control. The format is cell-based. As to conditions: filed as positive allosteric modulator, dose 0.01-10 µM, time 32.0 sec.
With `C[C@@]1(O)CC[C@H]2[C@H](CC[C@@H]3[C@@H]2CC[C@]2(C)[C@@H](C(=O)Cn4cnn(CC5CC5)c4=O)CC[C@@H]32)C1`, the Emax is 931%.

Turning to `C[C@@]1(O)CC[C@H]2[C@H](CC[C@@H]3[C@@H]2CC[C@]2(C)[C@@H](C(=O)Cn4ccn(-c5cccc(F)c5)c4=O)CC[C@@H]32)C1`, the Emax is 552%.

`C[C@@]1(O)CC[C@H]2[C@H](CC[C@@H]3[C@@H]2CC[C@]2(C)[C@@H](C(=O)Cn4cnn(-c5ccnc(F)c5)c4=O)CC[C@@H]32)C1`: the Emax amounted to 913%.

As to `C[C@@]1(O)CC[C@H]2[C@H](CC[C@@H]3[C@@H]2CC[C@]2(C)[C@@H](C(=O)Cn4ncn(-c5cccc(F)c5)c4=O)CC[C@@H]32)C1`, the Emax was determined as 334%.

Tested on in another data set: not listed separately
Kind of data set: Drug concentration in Sprague-Dawley rat brain at 24.4 micromol/kg, IG measured after 0.5 hrs by LC-MS/MS analysis. The format is ADME, tissue-based. To be noted: in vivo, po, dose 24.4 µmol/kg.
For the molecule `C[C@@]1(O)CC[C@H]2[C@H](CC[C@@H]3[C@@H]2CC[C@]2(C)[C@@H](C(=O)Cn4cnn(-c5ccnc(F)c5)c4=O)CC[C@@H]32)C1`, the Ct stood at 708 nmol/kg.

Tested on in another data set: not listed separately
Kind of data set: Drug concentration in Sprague-Dawley rat brain at 24.4 micromol/kg, IG measured after 2 hrs by LC-MS/MS analysis. In kind it is ADME, tissue-based. To be noted: in vivo, po, dose 24.4 µmol/kg.
Molecule `C[C@@]1(O)CC[C@H]2[C@H](CC[C@@H]3[C@@H]2CC[C@]2(C)[C@@H](C(=O)Cn4cnn(-c5ccnc(F)c5)c4=O)CC[C@@H]32)C1` showed a Ct of 1188 nmol/kg.

Tested on in another data set: not listed separately
Kind of data set: Drug concentration in Sprague-Dawley rat brain at 24.4 micromol/kg, IG measured after 6 hrs by LC-MS/MS analysis. The format is ADME, tissue-based. As to conditions: in vivo, po, dose 24.4 µmol/kg.
`C[C@@]1(O)CC[C@H]2[C@H](CC[C@@H]3[C@@H]2CC[C@]2(C)[C@@H](C(=O)Cn4cnn(-c5ccnc(F)c5)c4=O)CC[C@@H]32)C1` had a Ct of 764 nmol/kg.
